Here are results for 13 compounds from PubChem BioAssay (NCI).

Each structure is given as a SMILES string. Values joined by “and” are separate entries in the source; they are usually repeats but may differ in a detail not shown here. Identical values can stand only once.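 Cultured in 96-well plates, cells were exposed to test compound for 48 hours across five concentrations. Abbreviation: GI50, concentration required for 50% inhibition of growth. Definition used: TGI = concentration required for complete inhibition of growth.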

Common to all, as to test: NCI-60 cell line screen, 48 h
Experiment [1] deals with HOP-62 NSCLC.
The subject of experiment [2] is MALME-3M melanoma.
In experiment [3] the test system is MDA-MB-231 breast.
The test system of experiment [4] is SF-295 CNS.
Experiment [5] has as its system SK-MEL-5 melanoma.
In experiment [6] the test system is SN12C renal.
For experiment [7], the system named is SNB-19 CNS.
In experiment [8] the test system is TK-10 renal.
The test system of experiment [9] is HOP-92 NSCLC.
For experiment [10], the system named is SR leukemia.

As for `c1cncc(C2ONC3=NCCN32)c1` (stereo not given), the GI50 was 30 µM in [1]; 5.17 µM in [2]; 32.3 µM in experiment [3]; 33.3 µM in experiment [4]; 23.6 µM in experiment [5]; 14.6 µM in experiment [6]. The figures for the GI50 in experiment [7] and in experiment [8] were 69.7 µM and 10.9 µM, respectively. Also, the TGI in [1] was 91.1 µM; in experiment [2], 91.4 µM; in experiment [3], greater than 100 µM; in experiment [4], greater than 100 µM; in [5], greater than 100 µM; in experiment [6], 31.7 µM. Moreover, the TGI in experiment [7] was greater than 100 µM; in experiment [8], 70.6 µM.
Regarding `O=CC1=CCC2c3[nH]c4ccccc4c3CCN2C1` (stereo not given), the TGI in experiment [1] is greater than 39.6 µM; in [9], greater than 396 µM; in [2] it was greater than 396 µM; in [4], 326 µM; in experiment [5] it was greater than 396 µM; in experiment [6] it was greater than 396 µM. Also, the TGI in experiment [7], in experiment [10] and in [8] was greater than 396 µM throughout.
For the compound `O=C1CCS/C(=N/S(=O)(=O)c2ccc(N3N=C4c5ccccc5CC4C3c3cccs3)cc2)N1Cc1ccccc1` (stereo not given), the GI50 was 18.6 µM in experiment [1]; 35.9 µM in experiment [9]; 21.5 µM in [3]; 15.8 µM in experiment [4]; 14.1 µM in [5]; 18.5 µM in experiment [6]. Also, the figures for the GI50 in [7] and in [8] were 22.3 µM and 17.7 µM, respectively. The TGI turned out to be 34 µM in experiment [1]; 83.7 µM in experiment [9]; 53.7 µM in [3]; 37.5 µM in experiment [4]; 28.8 µM in [5]; 38.3 µM in experiment [6]. Further, the TGI was found to be 77.7 µM in [7] and 37.6 µM in experiment [8].
Take `O=C1CNN=C(Cn2nc(-c3ccccc3)c3ccccc3c2=O)N1`: the TGI in experiment [1], in experiment [9], in experiment [2], in [4], in [5] and in [6] was greater than 100 µM each time. The TGI in experiment [7], in [10] and in [8] was greater than 100 µM each time.
With `O=C(/C=C(\[O-])c1ccccc1)CCCCCCC(=O)/C=C(\[O-])c1ccccc1.O=C(/C=C(\[O-])c1ccccc1)CCCCCCC(=O)/C=C(\[O-])c1ccccc1.O=C(/C=C(\[O-])c1ccccc1)CCCCCCC(=O)/C=C(\[O-])c1ccccc1.[Nd+3].[Nd+3]`, the GI50 in experiment [1] is greater than 50 µM; in experiment [9] it was 43.8 µM; in [2], greater than 50 µM; in experiment [4] it was 40.2 µM; in [5], greater than 50 µM; in experiment [6], greater than 50 µM. The GI50 in experiment [7] and in experiment [8] was greater than 50 µM in each case. The TGI in experiment [1], in experiment [9], in [2], in experiment [4], in [5] and in experiment [6] was greater than 50 µM each time. Besides, the TGI in experiment [7] and in [8] was greater than 50 µM each time.
As for `CC1=CCN(c2ccccn2)OC1c1ccccc1` (stereo not given), the TGI in experiment [1], in [2], in experiment [4], in [6], in experiment [7] and in experiment [10] was greater than 100 µM in each case.
For `CC(=O)OCC1OC(n2c(=S)n(-c3ccccc3)c(=O)c3cc(Br)cc(Br)c32)C(OC(C)=O)C(OC(C)=O)C1OC(C)=O` (stereo not given), the GI50 in experiment [1] is 19.5 µM and > 100 µM; in [9] it was 15.3 µM and 46.9 µM; in [4], 11.7 µM and 60.3 µM; in experiment [7], 28.5 µM and 71.1 µM; in [10], greater than 100 µM. Further, the TGI in [1] was 54.8 µM and > 100 µM; in [9], 63.3 µM and > 100 µM; in [2], greater than 100 µM; in experiment [4] it was 71.4 µM and > 100 µM; in [5], greater than 100 µM; in experiment [6] it was greater than 100 µM. The TGI is 85.5 µM and > 100 µM in [7]; greater than 100 µM in experiment [10].
As for `CC1CC(C)C(C(O)CC2CC(=O)N(c3ccccc3)C(=O)C2)C(O)C1` (stereo not given), the TGI in experiment [1], in experiment [9], in [2], in experiment [4], in experiment [6] and in experiment [7] was greater than 100 µM throughout. Further, the TGI in experiment [10] and in experiment [8] was greater than 100 µM throughout.
For `C/C(CC(=O)Nc1cccc([N+](=O)[O-])c1)=N\NC(=O)C[n+]1ccccc1`, the TGI in [1], in [9], in experiment [2], in [4], in experiment [5] and in [8] was greater than 100 µM each time.
For `COCC1N=C(c2cc(OC)c(OC)c(OC)c2-c2cc3c(cc2[C@H](C)O)OCO3)O[C@H]1c1ccccc1` (stereo not given in full), the TGI in [9] was 86.4 µM; in [4], greater than 100 µM; in experiment [5] it was greater than 100 µM; in experiment [6], greater than 100 µM; in experiment [7], greater than 100 µM; in experiment [8] it was greater than 100 µM.
With `Nc1ccc(C(=O)/C=C/c2ccccc2O)cc1`, the TGI in [1], in [2], in experiment [4], in experiment [5], in experiment [6] and in experiment [7] was greater than 100 µM each time. Further, the TGI in experiment [10] and in experiment [8] was greater than 100 µM each time.
`COc1cc(CCc2ccc(OC(C)=O)cc2)cc(OC)c1OC`: the TGI in experiment [1], in [9], in experiment [2], in experiment [4], in [5] and in experiment [6] was greater than 100 µM in each case. Moreover, the TGI in experiment [7] and in [8] was greater than 100 µM each time.
In the case of `CN(C)c1ccc(O[Si](Oc2ccc(N(C)C)cc2)(Oc2ccc(N(C)C)cc2)Oc2ccc(N(C)C)cc2)cc1`, the TGI in experiment [1], in experiment [9], in experiment [2], in [4], in experiment [5] and in experiment [6] was greater than 100 µM each time. In addition, the TGI in experiment [7], in [10] and in experiment [8] was greater than 100 µM throughout.
